Data from paper PMC6588697, “Lugdunin amplifies innate immune responses in the skin in synergy with host- and microbiota-derived factors” (Nature Communications, 2019).
No end group written: not given here.

Tested on: S. aureus USA300
Assay: Antimicrobial testing (bactericidal, CFU) against S. aureus USA300
Type: cell-based, Staphylococcus aureus
Conditions: for S. aureus USA300 CFU normalized to untreated control (1.00): 3 h, mean of at least three experiments
Method: Fig. 5 Synergistic action of lugdunin and human antimicrobial peptides (AMPs) kills methicillin-resistant S. aureus (MRSA). a, c Logarithmically grown (3 × 10^6) S. aureus were incubated with indicated combinations of lugdunin and human AMPs in phosphate-buffered saline (PBS) containing 0.1% tryptic soy broth (TSB) at 37 °C orbital shaking (white bar, untreated; dark gray bars, AMP treatment; middle gray bars, lugdunin treatment; light gray bars, AMP and lugdunin combination treatment). After 3 h of incubation, several dilutions of the bacterial suspensions were plated onto TSB agar plates and incubated overnight at 37 °C. The next day S. aureus colony-forming units (CFUs) were counted. Each experiment was performed in triplicates. Data represent the percentage of CFU of at least three independent experiments normalized to the untreated control ± s.e.m. Significant differences to control treatments were analyzed by ordinary one-way analysis of variance (ANOVA) followed by Dunnett’s multiple comparisons test (*P < 0.05; **P < 0.01; ***P < 0.001; ****P < 0.0001). b Combination indices (CIs) were calculated using CompuSyn (ComboSyn Inc.) and indicated in median effect plots as a function of the bacteria fractions affected by the combinatorial peptide treatment. CI values of 1 indicate additive effects, whereas values <1 and >1 indicate synergistic and antagonistic effects, respectively. Source data are provided as a Source Data file TEXT PRINTED IN THE PICTURE: (a) DCD-1: S. aureus USA300, Lugdunin μM 0: 1.00 (DCD-1 μM: 0); S. aureus USA300, Lugdunin μM 1: 1.08 (DCD-1 μM: 0); S. aureus USA300, Lugdunin μM 2: 1.11 (DCD-1 μM: 0); S. aureus USA300, Lugdunin μM 3: 0.97 (DCD-1 μM: 0); S. aureus USA300, Lugdunin μM 0: 1.06 (DCD-1 μM: 1); S. aureus USA300, Lugdunin μM 1: 0.91 (DCD-1 μM: 1); S. aureus USA300, Lugdunin μM 2: 0.85 (DCD-1 μM: 1); S. aureus USA300, Lugdunin μM 3: 0.60 (DCD-1 μM: 1); S. aureus USA300, Lugdunin μM 0: 1.19 (DCD-1 μM: 2); S. aureus USA300, Lugdunin μM 1: 0.84 (DCD-1 μM: 2); S. aureus USA300, Lugdunin μM 2: 0.43 (DCD-1 μM: 2); S. aureus USA300, Lugdunin μM 3: 0.21 (DCD-1 μM: 2) | (a) DCD-1L: S. aureus USA300, Lugdunin μM 0: 1.00 (DCD-1L μM: 0); S. aureus USA300, Lugdunin μM 1: 1.08 (DCD-1L μM: 0); S. aureus USA300, Lugdunin μM 2: 1.11 (DCD-1L μM: 0); S. aureus USA300, Lugdunin μM 3: 0.97 (DCD-1L μM: 0); S. aureus USA300, Lugdunin μM 0: 1.13 (DCD-1L μM: 1); S. aureus USA300, Lugdunin μM 1: 0.98 (DCD-1L μM: 1); S. aureus USA300, Lugdunin μM 2: 0.68 (DCD-1L μM: 1); S. aureus USA300, Lugdunin μM 3: 0.07 (DCD-1L μM: 1); S. aureus USA300, Lugdunin μM 0: 1.37 (DCD-1L μM: 2); S. aureus USA300, Lugdunin μM 1: 0.60 (DCD-1L μM: 2); S. aureus USA300, Lugdunin μM 2: 0.42 (DCD-1L μM: 2); S. aureus USA300, Lugdunin μM 3: 0.02 (DCD-1L μM: 2) | (a) IL-37: S. aureus USA300, Lugdunin μM 0: 1.00 (IL-37 μM: 0); S. aureus USA300, Lugdunin μM 1: 1.08 (IL-37 μM: 0); S. aureus USA300, Lugdunin μM 2: 1.11 (IL-37 μM: 0); S. aureus USA300, Lugdunin μM 3: 0.97 (IL-37 μM: 0); S. aureus USA300, Lugdunin μM 0: 1.86 (IL-37 μM: 1); S. aureus USA300, Lugdunin μM 1: 1.27 (IL-37 μM: 1); S. aureus USA300, Lugdunin μM 2: 1.23 (IL-37 μM: 1); S. aureus USA300, Lugdunin μM 3: 1.90 (IL-37 μM: 1); S. aureus USA300, Lugdunin μM 0: 2.49 (IL-37 μM: 2); S. aureus USA300, Lugdunin μM 1: 1.28 (IL-37 μM: 2); S. aureus USA300, Lugdunin μM 2: 0.89 (IL-37 μM: 2); S. aureus USA300, Lugdunin μM 3: 0.38 (IL-37 μM: 2) DOUBTS OF THE COPYIST ABOUT THIS PICTURE: Panel a, third matrix: the row label reads IL-37, but it may be LL-37, as printed in panels b and c. / Panel a: the picture prints no measure for the matrix numbers, only the colour scale 'Growth – Killing, S. aureus USA300'. Each cell is a combination of Lugdunin (column, μM) with the peptide (row, μM). / Panel a: rows and columns at 0 μM are a single agent or the untreated control. […]

[1] = single peptide 0.4 µM, PBS + 0.1% TSB, 37 °C

What does the source list for “IASKFLCTPGCAKTGSFNSYCC (also: bicyclic or more (positions not given here)) [Gallidermin, bacteriocin isolated from Staphylococcus gallinarum]”?
S. aureus USA300 CFU normalized to untreated control (1.00) [1]: 0,84; S. aureus USA300 CFU normalized to untreated control (1.00) (single peptide 0.6 µM): 0,91; S. aureus USA300 CFU normalized to untreated control (1.00) (single peptide 0.8 µM): 0,74

For “ITSISLCTPGCKTGALMGCNMKTATCHCSIHVSK (not fully specified (bridges); also: lanthionine rings, places not given here) [Nisin, bacteriocin of Lactococcus lactis, purchased from Sigma]”, which “S. aureus USA300 CFU normalized to untreated control (1.00)” value (shortened to “S. aureus USA300 CFU normalized”) [1] is on record?
The value was 1,31.

What about the “S. aureus USA300 CFU normalized” value (single peptide 0.6 µM) of the same substance?
Its value is 1,49.

What about the “S. aureus USA300 CFU normalized” value (single peptide 0.8 µM) of the same substance?
Its value is 1,49.

How did the “S. aureus USA300 CFU normalized” value (single peptide 1 µM) turn out when “LLGDFFRKSKEKIGKEFKRIVQRIKDFLRNLVPRTES [LL-37, human cathelicidin AMP]” was run?
The value was 1,86.

What about the “S. aureus USA300 CFU normalized” value (single peptide 2 µM) of the same substance?
Its value is 2,49.

Lugdunin was tested. Which “S. aureus USA300 CFU normalized” value (single peptide 1 µM) did it give?
Its value is 1,08.

And the “S. aureus USA300 CFU normalized” value (single peptide 2 µM)?
Its value is 1,11.

For “MEAVKEKNELFDLDVKVNAKESNDSGAEPRIASKFLCTPGCAKTGSFNSYCC [Pro-Gallidermin, non-bactericidal pro-form of gallidermin]”, which “antimicrobial activity on co-incubation with human AMPs (in words)” value (S. aureus USA300, text to Supp Figs 5, 6) is on record?
Its value is “did not lead to antimicrobial activity”.

And the “S. aureus USA300 CFU normalized” value [1]?
The value was 1,34.

What about the “S. aureus USA300 CFU normalized” value (single peptide 0.6 µM) of the same substance?
Its value is 1,61.

What about the “S. aureus USA300 CFU normalized” value (single peptide 0.8 µM) of the same substance?
Its value is 1,30.

“SSLLEKGLDGAKKAVGGLGKLGKDAVEDLESVGKGAVHDVKDVLDSV [DCD-1, dermcidin-derived human AMP of eccrine sweat glands]” was tested. Which “S. aureus USA300 CFU normalized” value (single peptide 1 µM) did it give?
Its value is 1,06.

And the “S. aureus USA300 CFU normalized” value (single peptide 2 µM)?
The value was 1,19.

Which “S. aureus USA300 CFU normalized” value (single peptide 1 µM) does the source give for “SSLLEKGLDGAKKAVGGLGKLGKDAVEDLESVGKGAVHDVKDVLDSVL [DCD-1L, dermcidin-derived human AMP of eccrine sweat glands]” here?
The value was 1,13.
